# Like-named read-outs stand apart in the source and are kept apart here.
# Legend:
# Format in all cases: cell-based
# [1] = tested on: Mycobacterium kansasii DSM 44,162 (ATCC 12478); assay: Antimycobacterial microdilution (resazurin) vs M. kansasii; conditions: Middlebrook 7H9, resazurin, read-out: MIC M. kansasii
# [2] = tested on: Mycolicibacterium aurum DSM 43,999 (ATCC 23366); assay: Antimycobacterial microdilution (resazurin) vs M. aurum; conditions: Middlebrook 7H9, resazurin, read-out: MIC M. aurum
# [3] = tested on: Mycobacterium tuberculosis H37Ra ITM-M006710 (ATCC 9431); assay: Antimycobacterial microdilution (resazurin) vs Mtb H37Ra; conditions: Middlebrook 7H9, resazurin, recalculated from µg/mL, read-out: MIC Mtb H37Ra
# [4] = tested on: Mycobacterium tuberculosis H37Rv CNCTC My 331/88 (ATCC 27294); assay: Microplate Alamar Blue assay vs Mtb H37Rv; conditions: Mycobacterium tuberculosis, pH 6.6, MABA, Middlebrook 7H9 pH 6.6, recalculated from µg/mL; read-out: MIC Mtb H37Rv
# [5] = tested on: Mycobacterium avium DSM 44,156 (ATCC 25291); assay: Antimycobacterial microdilution (resazurin) vs M. avium; conditions: Mycobacterium avium, Middlebrook 7H9, resazurin; read-out: MIC M. avium
# [6] = tested on: Mycolicibacterium smegmatis DSM 43,465 (ATCC 607); assay: Antimycobacterial microdilution (resazurin) vs M. smegmatis; conditions: Middlebrook 7H9, resazurin, read-out: MIC M. smeg.
# [7] = tested on: Candida parapsilosis CCM 8260 (ATCC 22019); assay: Antifungal microdilution broth (EUCAST); conditions: Lodderomyces parapsilosis, Candida parapsilosis CCM 8260, 24 h
# [8] = tested on: Aspergillus fumigatus ATCC 204305; assay: Antifungal microdilution broth (EUCAST); conditions: ATCC204305, Aspergillus fumigatus ATCC 204305, 48 h
# [9] = tested on: Aspergillus flavus CCM 8363; assay: Antifungal microdilution broth (EUCAST); conditions: CCM8363, Aspergillus flavus CCM 8363, 48 h
# [10] = tested on: Candida albicans CCM 8320 (ATCC 24433); assay: Antifungal microdilution broth (EUCAST); conditions: Candida albicans CCM 8320, 24 h
# [11] = tested on: Lichtheimia corymbifera CCM 8077; assay: Antifungal microdilution broth (EUCAST); conditions: CCM8077, Lichtheimia corymbifera CCM 8077, 48 h
# [12] = tested on: Candida krusei CCM 8271 (ATCC 6258); assay: Antifungal microdilution broth (EUCAST); conditions: Pichia kudriavzevii, Candida krusei CCM 8271, 24 h
# [13] = tested on: Candida tropicalis CCM 8264 (ATCC 750); assay: Antifungal microdilution broth (EUCAST); conditions: ATCC 750 / CCM 8264 / CCM 8321, CCM 8321, 24 h
# [14] = tested on: Trichophyton interdigitale CCM 8377 (ATCC 9533); assay: Antifungal microdilution broth (EUCAST); conditions: Trichophyton interdigitale CCM 8377
# [15] = tested on: Escherichia coli CCM 3954 (ATCC 25922); assay: Antibacterial microdilution broth (EUCAST); conditions: Escherichia coli
# [16] = tested on: methicillin-resistant Staphylococcus aureus subsp. aureus (MRSA) CCM 4750 (ATCC 43300); assay: microbe, parasite or virus in culture; conditions: 24 h
# [17] = tested on: Staphylococcus aureus subsp. aureus CCM 4223 (ATCC 29213); assay: Antibacterial microdilution broth (EUCAST)
# [18] = tested on: Klebsiella pneumoniae CCM 4415 (ATCC 10031); assay: Antibacterial microdilution broth (EUCAST); conditions: Klebsiella pneumoniae
# [19] = tested on: Pseudomonas aeruginosa CCM 3955 (ATCC 27853); assay: Antibacterial microdilution broth (EUCAST)
# [20] = tested on: Enterococcus faecalis CCM 4224 (ATCC 29212); assay: Antibacterial microdilution broth (EUCAST); conditions: 24 h
# [21] = tested on: Staphylococcus epidermidis CCM 4418 (ATCC 12228); assay: Antibacterial microdilution broth (EUCAST)
# [22] = tested on: Acinetobacter baumannii DSM 30007 (ATCC 19606); assay: Antibacterial microdilution broth (EUCAST); conditions: 24 h
# [23] = read-out: IC90 (spectrophotometric detection, 530 nm)
# [24] = read-out: MIC (visual detection)
# [25] = read-out: MIC (spectrophotometric detection, 530 nm)
compound,measurement,setting,value
"O=C(O)c1cn(C2CC2)c2cc(N3CCNCC3)c(F)cc2c1=O [CIP, ciprofloxacin, reference compound]",MIC,[1],0.75 µM
same,MIC,[2],0.05 µM
same,MIC,[3],1.51 µM
same,MIC,[4],0.6 µM
same,MIC,[5],1.51 µM
same,MIC,[6],0.19 µM
"C[C@@H]1[C@H](O)[C@@H](C)/C=C/C=C/C=C/C=C/C=C/C=C/C=C/[C@H](O[C@@H]2O[C@H](C)[C@@H](O)[C@H](N)[C@@H]2O)C[C@@H]2O[C@](O)(C[C@@H](O)C[C@@H](O)[C@H](O)CC[C@@H](O)C[C@@H](O)CC(=O)O[C@H]1C)C[C@H](O)[C@H]2C(=O)O [amphotericin B, reference compound]",IC90,[7]; [23],541 nM
same,MIC,[7]; [24],0.541 µM
same,IC90,[8]; [23],4330 nM
same,MIC,[8]; [24],4.33 µM
same,IC90,[9]; [23],4330 nM
same,MIC,[9]; [24],4.33 µM
same,IC90,[10]; [23],1080 nM
same,MIC,[10]; [24],1.08 µM
same,IC90,[11]; [23],1080 nM
same,MIC,[11]; [24],1.08 µM
same,IC90,[12]; [23],1080 nM
same,MIC,[12]; [24],1.08 µM
same,IC90,[13]; [23],1080 nM
same,MIC,[13]; [24],1.08 µM
same,IC90,[14]; [23],1080 nM
same,MIC,[14]; [24],1.08 µM
"CNC(C)C1CCC(N)C(OC2C(N)CC(N)C(OC3OCC(C)(O)C(NC)C3O)C2O)O1 (centres unmarked) [gentamicin, reference compound]",MIC,"[15]; E. coli CCM 3954, 95% growth inhibition, 24 h, read-out: MIC (spectrophotometric detection, 530 nm)",2.09 µM
same,MIC,"[15]; E. coli CCM 3954, 24 h, read-out: MIC (visual detection)",> 2.09 µM
same,MIC,[16]; [25],> 16.8 µM
same,MIC,[16]; [24],> 16.8 µM
same,MIC,"[17]; S. aureus CCM 4223, 95% growth inhibition, 24 h, read-out: MIC (spectrophotometric detection, 530 nm)",2.09 µM
same,MIC,"[17]; S. aureus CCM 4223, 24 h, read-out: MIC (visual detection)",1.05 µM
same,MIC,"[18]; K. pneumoniae CCM 4415, 95% growth inhibition, 24 h, read-out: MIC (spectrophotometric detection, 530 nm)",1.05 µM
same,MIC,"[18]; K. pneumoniae CCM 4415, 24 h, read-out: MIC (visual detection)",1.05 µM
same,MIC,"[19]; P. aeruginosa CCM 3955, 95% growth inhibition, 24 h, read-out: MIC (spectrophotometric detection, 530 nm)",1.05 µM
same,MIC,"[19]; P. aeruginosa CCM 3955, 24 h, read-out: MIC (visual detection)",1.05 µM
same,MIC,[20]; [25],> 16.8 µM
same,MIC,[20]; [24],> 16.8 µM
same,MIC,"[21]; S. epidermidis CCM 4418, 95% growth inhibition, 24 h, read-out: MIC (spectrophotometric detection, 530 nm)",0.131 µM
same,MIC,"[21]; S. epidermidis CCM 4418, 24 h, read-out: MIC (visual detection)",0.131 µM
same,MIC,[22]; [25],16.8 µM
same,MIC,[22]; [24],16.8 µM

# Source: PMC9917560, “Design, Synthesis and Antimicrobial Evaluation of New N-(1-Hydroxy-1,3-dihydrobenzo[c][1,2]oxaborol-6-yl)(hetero)aryl-2-carboxamides as Potential Inhibitors of Mycobacterial Leucyl-tRNA Synthetase” (International Journal of Molecular Sciences, 2023)
